In patent US9409952B2, “Peptide-compound cyclization method” (Chugai Seiyaku Kabushiki Kaisha, priority 2011, dated 2016):
Read-outs that look alike come from different tables or passages of the source. Starred links: 1 amine or outer side, 2 acyl side, 3 side chain; linkers in the order of their positions; H or OH if unused. Positions of bridges follow the written chain, without caps; N, C: chain ends. Non-standard residues stand in square brackets, D forms with d. Residues, ends and D or L forms follow the SMILES beside them. *: point of attachment. NMePhe(3-Cl) = CN[C@@H](Cc1cccc(Cl)c1)C(=O)O; NMeF = CN[C@@H](Cc1ccccc1)C(=O)O; NMeβAla = CN(CCC(=O)[*:2])[*:1]; NMeL = CN[C@@H](CC(C)C)C(=O)O; NMeA = CN[C@@H](C)C(=O)O; Piperidide = C1CCN(*)CC1; dNMeA = CN[C@H](C)C(=O)O; Sar = CNCC(=O)O; tBu = CC(C)(C)*

What was measured:
[1] = PAMPA (parallel artificial membrane permeability assay); format: in vitro ADME; details: PAMPA
Procedure, shortened: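 Artificial membrane was 10% (w/v) egg lecithin plus 0.5% (w/v) cholesterol in dodecane on a PVDF filter. A 10 mM DMSO stock was added at 0.5% (v/v) to donor buffer (50 mM MOPSO, pH 6.5, 5.0% glycocholic acid). After 18 h at 37 °C, LC/MS or LC/UV gave donor and acceptor levels for Pe.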

[2] = Metabolic stability in human hepatic microsome; format: in vitro ADME; details: microsomes
[3] = membrane permeation rate (Pe), 50 mM MOPSO buffer pH 6.5 with 5.0% glycocholic acid, 37° C., 18 hours, read-out: iPAMPA Pe
[4] = pH 7.4, human hepatic microsome, NADPH(+), read-out: CL NADPH(+)

| Structure (SMILES) | Papp at 18 hours, 50 µM ([1]; pH 6.5) [×10⁻⁶ cm/s] | microsomal CLint at 1 uM ([2]; human, pH 7.4, CL NADPH(+)) [µL/min/mg] | Papp at 18 hours, 50 µM [1, 3] [×10⁻⁶ cm/s] | microsomal CLint at 1 uM [2, 4] [µL/min/mg] |
| --- | --- | --- | --- | --- |
| CC[C@H](C)[C@H](NC(=O)[C@H](C)N(C)C(=O)[C@H](CC(C)C)N(C)C(=O)[C@@H](NC(=O)[C@@H]1CC(=O)N(C)[C@@H](C)C(=O)N[C@@H]([C@@H](C)O)C(=O)N(C)[C@@H](Cc2ccccc2)C(=O)N[C@@H](C(C)C)C(=O)N2CCC[C@H]2C(=O)N(C)[C@@H](Cc2ccccc2)C(=O)N[C@@H](CC(C)C)C(=O)N(C)[C@@H](Cc2ccccc2)C(=O)N1)C(C)C)C(=O)N1CCCCC1 [DP-943] ([NMeA]T[NMeF]VP[NMeF]L[NMeF]DV[NMeL][NMeA]I-Piperidide; lactam N-9) | 0.1 | 7 | – | – |
| CC[C@H](C)[C@H](NC(=O)[C@H](CC(C)C)N(C)C(=O)[C@H](CC(C)C)NC(=O)[C@H](C)N(C)C(=O)[C@@H]1CC(=O)N[C@H](C(C)C)C(=O)N(C)[C@@H](CC(C)C)C(=O)N(C)[C@@H](CC(C)C)C(=O)N[C@@H](C)C(=O)N[C@@H](Cc2ccccc2)C(=O)N[C@@H]([C@@H](C)O)C(=O)N[C@@H](CC(C)C)C(=O)N(C)[C@@H](Cc2ccccc2)C(=O)N(C)[C@@H](CC(C)C)C(=O)N1)C(=O)N1CCCCC1 [DP-944] ([dV][NMeL][NMeL]AFTL[NMeF][NMeL]D[NMeA]L[NMeL]I-Piperidide; lactam N-10) | – | – | 0.1 | 20 |
| CC[C@H](C)[C@H](NC(=O)[C@H](CC(C)C)N(C)C(=O)[C@H](CC(C)C)NC(=O)[C@H](C)N(C)C(=O)[C@@H]1CC(=O)N[C@@H](C)C(=O)N(C)[C@@H](CC(C)C)C(=O)N[C@@H](C(C)C)C(=O)N[C@@H](C)C(=O)N(C)[C@@H](CC(C)C)C(=O)N(C)[C@@H](CC(C)C)C(=O)N(C)[C@@H](Cc2ccccc2)C(=O)N[C@@H]([C@@H](C)O)C(=O)N(C)[C@@H](Cc2ccccc2)C(=O)N1)C(=O)N1CCCCC1 [DP-945] (A[NMeL]VA[NMeL][NMeL][NMeF]T[NMeF]D[NMeA]L[NMeL]I-Piperidide; lactam N-10) | – | – | 0.1 | 28 |
| CC[C@H](C)[C@@H]1NC(=O)[C@H](CC(C)C)N(C)C(=O)[C@H](Cc2cccc(Cl)c2)N(C)C(=O)[C@H](Cc2ccccc2)NC(=O)[C@H](CC(C)C)N(C)C(=O)[C@H](C)N(C)C(=O)[C@H]([C@@H](C)O)NC(=O)[C@H](C)N(C)C(=O)C[C@@H](C(=O)N[C@H](C(=O)N(C)[C@@H](CC(C)C)C(=O)N(C)[C@@H](Cc2ccccc2)C(=O)N[C@H](C(=O)N2CCCCC2)[C@@H](C)CC)[C@@H](C)CC)NC(=O)[C@H](C(C)C)NC1=O [DP-946] ([NMeA]T[NMeA][NMeL]F[NMePhe(3-Cl)][NMeL]IVDI[NMeL][NMeF]I-Piperidide; lactam N-10) | – | – | 0.1 | 15 |
| CC[C@H](C)[C@@H]1NC(=O)[C@H](CC(C)C)N(C)C(=O)[C@H](Cc2ccccc2)N(C)C(=O)[C@H](Cc2ccccc2)NC(=O)[C@H](C)N(C)C(=O)[C@H](CC(C)C)N(C)C(=O)[C@@H](C(C)C)NC(=O)C[C@@H](C(=O)N(C)[C@@H](CC(C)C)C(=O)N[C@H](C(=O)N(C)[C@@H](C)C(=O)N[C@H](C(=O)N2CCCCC2)[C@@H](C)CC)C(C)C)NC(=O)[C@H](CC(C)C)NC(=O)[C@H]([C@@H](C)O)NC1=O [DP-947] ([dV][NMeL][NMeA]F[NMeF][NMeL]ITLD[NMeL]V[NMeA]I-Piperidide; lactam N-10) | – | – | 0.1 | 14 |
| CC[C@H](C)[C@H](NC(=O)[C@H](CC(C)C)N(C)C(=O)[C@@H]1CCCN1C(=O)[C@H](Cc1ccccc1)N(C)C(=O)[C@@H]1CC(=O)N(C)CCC(=O)N[C@@H](Cc2ccccc2)C(=O)N(C)[C@@H](CC(C)C)C(=O)N[C@@H]([C@@H](C)O)C(=O)N[C@@H](C(C)C)C(=O)NCC(=O)N(C)[C@@H](CC(C)C)C(=O)N[C@@H](CC(C)C)C(=O)N(C)[C@@H](CC(C)C)C(=O)N1)C(=O)N1CCCCC1 [DP-948] ([NMeβAla]F[NMeL]TVG[NMeL]L[NMeL]D[NMeF]P[NMeL]I-Piperidide; lactam N-10) | – | – | 0.78 | 20 |
| CC[C@H](C)[C@H](NC(=O)[C@@H](NC(=O)[C@H](Cc1ccccc1)NC(=O)[C@@H]1CC(=O)N[C@H](C(C)C)C(=O)N(C)[C@@H](C)C(=O)N(C)[C@@H](CC(C)C)C(=O)N[C@@H]([C@@H](C)O)C(=O)N(C)CC(=O)N(C)[C@@H](Cc2ccccc2)C(=O)N(C)[C@@H](CC(C)C)C(=O)N(C)[C@@H](Cc2cccc(Cl)c2)C(=O)N(C)[C@@H](CC(C)C)C(=O)N[C@@H](C)C(=O)N1)C(C)C)C(=O)N1CCCCC1 [DP-949] ([dV][NMeA][NMeL]T[Sar][NMeF][NMeL][NMePhe(3-Cl)][NMeL]ADFVI-Piperidide; lactam N-11) | – | – | 0.11 | 37 |
| CC[C@H](C)[C@@H]1NC(=O)[C@H](CC(C)C)NC(=O)[C@H](C)N(C)C(=O)[C@H](CC(C)C)N(C)C(=O)[C@H](CC(C)C)NC(=O)[C@H](Cc2cccc(Cl)c2)N(C)C(=O)[C@H]([C@@H](C)O)NC(=O)[C@H](C)N(C)C(=O)[C@H](C(C)C)NC(=O)[C@H](C)N(C)C(=O)C[C@@H](C(=O)N(C)[C@@H](Cc2ccccc2)C(=O)N(C)[C@@H](CC(C)C)C(=O)N[C@H](C(=O)N2CCCCC2)[C@@H](C)CC)NC1=O [DP-950] ([NMeA]V[NMeA]T[NMePhe(3-Cl)]L[NMeL][NMeA]LID[NMeF][NMeL]I-Piperidide; lactam N-11) | – | – | 0.1 | 12 |
| CC[C@H](C)[C@H](NC(=O)[C@@H](NC(=O)[C@H](C)N(C)C(=O)[C@@H]1CC(=O)N(C)[C@@H](C)C(=O)N(C)[C@@H](CC(C)C)C(=O)N(C)[C@@H](CC(C)C)C(=O)N[C@@H](CC(C)C)C(=O)N(C)[C@@H](CC(C)C)C(=O)N(C)[C@@H](Cc2ccccc2)C(=O)N(C)[C@@H](Cc2ccccc2)C(=O)N[C@@H]([C@@H](C)O)C(=O)N(C)[C@@H](C)C(=O)N(C)[C@@H](CC(C)C)C(=O)N1)C(C)C)C(=O)N1CCCCC1 [DP-951] ([NMeA][NMeL][NMeL]L[NMeL][NMeF][NMeF]T[NMeA][NMeL]D[NMeA]VI-Piperidide; lactam N-11) | – | – | 0.1 | 11 |
| CC[C@H](C)[C@H](NC(=O)[C@H](Cc1ccccc1)NC(=O)[C@@H]1CC(=O)N[C@@H](C)C(=O)N[C@@H]([C@@H](C)O)C(=O)N(C)CC(=O)N[C@@H](CC(C)C)C(=O)N2CCC[C@H]2C(=O)N(C)[C@@H](CC(C)C)C(=O)N[C@@H](Cc2ccccc2)C(=O)N(C)[C@@H](Cc2ccccc2)C(=O)N(C)[C@@H](CC(C)C)C(=O)N[C@@H](C)C(=O)N(C)[C@@H](CC(C)C)C(=O)N1)C(=O)N1CCCCC1 [DP-952] (AT[Sar]LP[NMeL]F[NMeF][NMeL]A[NMeL]DFI-Piperidide; lactam N-12) | 4.4 | 91 | – | – |
| CC[C@H](C)[C@H](NC(=O)[C@@H]1CC(=O)N[C@@H](Cc2ccccc2)C(=O)N(C)[C@@H](CC(C)C)C(=O)N[C@@H](C)C(=O)N(C)[C@@H](CC(C)C)C(=O)N[C@@H](COC(C)(C)C)C(=O)N(C)[C@@H](CC(C)C)C(=O)N(C)[C@@H](CC(C)C)C(=O)N[C@@H]([C@@H](C)O)C(=O)N[C@@H](Cc2ccccc2)C(=O)N(C)[C@@H](Cc2ccccc2)C(=O)N(C)[C@@H](C)C(=O)N1)C(=O)N[C@H](C(=O)N1CCCCC1)[C@@H](C)CC [DP-953] (F[NMeL]A[NMeL]S(tBu)[NMeL][NMeL]TF[NMeF][NMeA]DII-Piperidide; lactam N-12) | – | – | 0.1 | 8 |
| CC[C@H](C)[C@H](NC(=O)[C@@H](NC(=O)[C@@H]1CC(=O)N(C)CCC(=O)N[C@@H](Cc2ccccc2)C(=O)N(C)[C@@H](Cc2ccccc2)C(=O)N(C)[C@@H](CC(C)C)C(=O)N[C@@H]([C@@H](C)O)C(=O)N(C)[C@@H](C)C(=O)N(C)[C@@H](CC(C)C)C(=O)N[C@@H](C(C)C)C(=O)N(C)[C@@H](CC(C)C)C(=O)N[C@@H](COC(C)(C)C)C(=O)N(C)[C@@H](CC(C)C)C(=O)N1)C(C)C)C(=O)N1CCCCC1 [DP-954] ([NMeβAla]F[NMeF][NMeL]T[NMeA][NMeL]V[NMeL]S(tBu)[NMeL]DVI-Piperidide; lactam N-12) | – | – | 0.1 | 26 |
| CC[C@H](C)[C@H](NC(=O)[C@@H]1CC(=O)N[C@@H](C)C(=O)N[C@@H]([C@@H](C)O)C(=O)N(C)CC(=O)N[C@@H](CC(C)C)C(=O)N2CCC[C@H]2C(=O)N(C)[C@@H](CC(C)C)C(=O)N[C@@H](Cc2ccccc2)C(=O)N(C)[C@@H](Cc2ccccc2)C(=O)N(C)[C@@H](C)C(=O)N(C)[C@@H](CC(C)C)C(=O)N[C@@H](C)C(=O)N(C)[C@@H](CC(C)C)C(=O)N1)C(=O)N1CCCCC1 [DP-955] (AT[Sar]LP[NMeL]F[NMeF][NMeA][NMeL]A[NMeL]DI-Piperidide; lactam N-13) | – | – | 6.3 | 30 |
| CC[C@H](C)[C@@H]1NC(=O)[C@H](C)N(C)C(=O)[C@H](CC(C)C)N(C)C(=O)[C@H](Cc2ccccc2)NC(=O)[C@H](CC(C)C)N(C)C(=O)[C@H](CC(C)C)N(C)C(=O)[C@H](C)N(C)C(=O)[C@H](Cc2ccccc2)N(C)C(=O)[C@@H](C)N(C)C(=O)C[C@@H](C(=O)N[C@H](C(=O)N2CCCCC2)[C@@H](C)CC)NC(=O)[C@H](CC(C)C)N(C)C(=O)[C@H]([C@@H](C)O)NC(=O)[C@H](CO)NC1=O [DP-956] ([dNMeA][NMeF][NMeA][NMeL][NMeL]F[NMeL][NMeA]IST[NMeL]DI-Piperidide; lactam N-13) | – | – | 0.58 | 40 |
| CC[C@H](C)[C@@H]1NC(=O)[C@H](CC(C)C)N(C)C(=O)[C@H](CC(C)C)N(C)C(=O)CN(C)C(=O)[C@H]([C@@H](C)O)NC(=O)[C@H](CC(C)C)N(C)C(=O)[C@H](CC(C)C)NC(=O)CCN(C)C(=O)C[C@@H](C(=O)N2CCCCC2)NC(=O)[C@H](C)NC(=O)[C@H](Cc2ccccc2)N(C)C(=O)[C@H](Cc2ccccc2)NC(=O)[C@H](CC(C)C)N(C)C1=O [DP-957] ([NMeβAla]L[NMeL]T[Sar][NMeL][NMeL]I[NMeL]F[NMeF]AD-Piperidide; lactam N-13) | – | – | 4 | 54 |
